Tests used:
[1] = system: synthetic community of C. innocuum, E. coli, E. faecalis, and K. pneumoniae; assay: Mixed-batch culture of synthetic community treated with Dox in second generation; type: cell-based; conditions: Dox 100 μM added in second generation
Description: We next performed a mixed-batch culture experiment. (See FIGS. 10A and 10B). We prepared a synthetic community by combining cultures of C. innocuum, E. coli, E. faecalis, and K. pneumoniae. We cultured the synthetic community and allowed community formation in a first generation. Subsequently, we added Dox at a concentration of 100 μM and monitored the growth of the members of the synthetic community after treatment/disturbance in a second generation. We then cultured the synthetic community though resiliency in a third generation.
(See FIGS. 10B, middle panel).

Lactobacillus [2] = assay: Sensitivity of monoculture growth to Dox at various concentrations; type: cell-based, Lactobacillus spp.
Text: (§1) The impacts of doxorubicin on a model community of gut bacteria was investigated in vitro in anaerobic batch culture. The synthetic community was composed of specific members predicted by genomic analysis to be sensitive to the therapeutic (i.e., Clostridium innocuum, Lactobacillus sp.), resistant via putative biotransformation (i.e., Escherichia coli, Klebsiella pneumoniae), or resistant via putative efflux (i.e., Enterococcus faecalis). Bacterial growth was monitored in monocultures by measuring OD600 and standard plate counts, and in mixed cultures by strain-targeted qPCR. Doxorubicin concentration was detected via absorbance assay.
(§2) The effects of Dox on gut-associated bacteria then were investigated in vitro in monoculture and in a synthetic community. […] Bacteria were identified and quantified after culture and treatment using qPCR.
(§3) (See FIGS. 4-8). […] (See FIGS. 4 and 5, respectively).
(§4) (See FIGS. 7 and 8, respectively).

C. innocuum = assay: Growth of Dox-sensitive strain in 50% spent media of resistant strains; type: cell-based, Clostridium innocuum
Description: (§5) We previously observed that a Dox concentration as low as 10 μM can inhibit the growth of C. innocuum and Lactobacillus. (See FIGS. 7 and 8, respectively).

[3] = system: mixed-microbial communities of C. innocuum, Lactobacillus sp., E. faecalis, E. coli, and K. pneumoniae; assay: Mixed-microbial communities C1-C5 in continuous anaerobic batch culture exposed to Dox in generation 2; type: cell-based
Description: FIG. 11A, FIG. 11B, FIG. 11C, FIG. 11D, and FIG. 11E. […] C1 began with even content of model strains of C innocuum^S, Lactobacillus^S sp., E. faecalisR, E. coli^R*, and K. pneumoniae^R*. C2 included less E. faecalis^R. C3 included less E. coli^R* . C4 included less K. pneumoniae^R*, and C5 included less E. coli^R* and K. pneumoniae^R*. The bacterial communities were grown in continuous batch culture and exposed to different concentrations Dox in generation 2.
The impacts of doxorubicin concentration and microbial community membership (and associated function) on the reduction of bioactive drug and associated microbial community resiliency were investigated in vitro in continuous anaerobic batch culture. Optical density measurements coupled with 16S rRNA gene amplicon sequencing analysis were used to estimate relative bacterial growth and a spectrophotometric assay was used to measure doxorubicin concentration. […] C1 began with even content of model strains of C. innocuum^S, Lactobacillus^S sp., E. faecalis^R, E. coli^R*, and K. pneumoniae^R*. C2 included less E. faecalis^R. C3 included less E. coli^R*. C4 included less K. pneumoniae^R*, and C5 included less E. coli^R* and K. pneumoniae^R*. The bacterial communities were grown in continuous batch culture and exposed to different concentrations Dox in generation 2.
C1, C2, and C3, may have been enhanced in communities with greater bacterial diversity. (See FIGS. 11A, 11B, and 11C, and compare C1 to C2 and C3, at least for the medium concentration). […] (See FIG. 11D, C4). […] (See FIG. 11E, C5). […] (See FIGS. 11A, 11B, and 11C, C1, C2, and C3, generation 3). […] Thus, microbial community membership (and associated function) impacted the rate of doxorubicin transformation, which, in turn, may confer protective effects on drug-sensitive members in gut-microbial communities.

Clostridium innocuum = assay: Sensitivity of monoculture growth to Dox at various concentrations; type: cell-based; conditions: C. innocuum
Text: as §1, §2, §3, §4

Lactobacillus [4] = assay: Growth of Dox-sensitive strain in 50% spent media of resistant strains; type: cell-based, Lactobacillus spp.
Description: as §5

Escherichia coli [5] = assay: Sensitivity or resistance of monoculture growth to Dox; type: cell-based; conditions: E. coli
Text: as §1, §2, §3

Enterococcus faecalis [6] = assay: as above; type: cell-based; conditions: E. faecalis
Text: as §1, §2, §3

Klebsiella pneumoniae [7] = assay: as above; type: cell-based; conditions: K. pneumoniae
Text: as §1, §2, §3

Escherichia coli [8] = assay: Bacterial transformation of Dox, spectrophotometric assay of Dox concentration in culture / spent media
Text: (§6) A spectrophotometric assay to measure the concentration of active, unmodified, non-transformed doxorubicin was adopted.
(§7) A spectrophotometric assay to measure the concentration of doxorubicin was adopted. […] Our spectrophotometric assays measure the concentration of active, unmodified, non-transformed doxorubicin (Dox) via absorption at λ480 versus concentration of Dox μM.
(§8) We next tested the sensitivity or resistance of Escherichia coli, Klebsiella pneumonia, Enterococcus faecalis, Clostridium innocuum or Lactobacillus spp. to Dox at various concentrations. (See FIGS. 4-8). […] (See FIGS. 4 and 5, respectively).

Klebsiella pneumoniae [9] = assay: as above
Text: as §6, §7, §8

Enterococcus faecalis [10] = assay: as above
Text: as §6, §7

K. pneumoniae = assay: Modified resting cell assay with gentamicin; type: cell-based, Klebsiella pneumoniae; conditions: 10 or 50 μm gentamicin, anaerobic, 37° C., 24 h, controls
Description: FIG. 12A and FIG. 12B. Background gentamicin in culture media “fixes” K. pneumoniae to retain its biotransformation function despite thwarting cell growth. FIG. 12A: K. pneumoniae were first grown anaerobically at 37° C. in media in the presence of doxorubicin for 24 h (i.e., so initial biotransformation took place). Cultures were centrifugated into pellets, which were washed with buffer solution and resuspended in new media containing 100 μm doxorubicin and 0, 10, or 50 μm gentamicin. Inoculum was transferred to positive controls (i.e., with doxorubicin and same gentamicin treatment) and negative controls (i.e., contained doxorubicin, but no gentamicin). All samples were incubated anaerobically at 37° C. for 24 h and bacterial growth and final doxorubicin concentration (i.e., barplot) were determined. […] The two tubes on the far right are control growth media and doxorubicin-containing growth media (i.e., red color intensity corresponds to doxorubicin concentration in solution).
In a modified resting cell assay, we have shown that the biotransformation function can be harnessed without dependency on cell division. (See FIGS. 12A and 12B). Thus, it may be possible to “fix” K. pneumoniae in a form that enzymatically transforms Dox without presenting risk for in vivo colonization/growth. […]

[11] = spent media of E. coli and K. pneumoniae, Dox 4.1±2.5 μM and 4.4±0.9
[12] = spent media of E. faecalis, Dox 48.4±0.8 μM

COc1cccc2c1C(=O)c1c(O)c3c(c(O)c1C2=O)C[C@@](O)(C(=O)CO)C[C@@H]3O[C@H]1C[C@H](N)[C@H](O)[C@H](C)O1 [Dox, doxorubicin]
Growth of Dox-sensitive C. innocuum in synthetic community [1]: grew only following doxorubicin transformation | Growth after 25 hours (Lactobacillus [2]; Dox 100 μM): did not observe any growth | Dox concentration at which delayed growth was observed (Lactobacillus [2]; monoculture): ≤ 10 µM | Sensitivity to Dox (Lactobacillus [2]; monoculture): highly sensitive | Growth in 50% spent media (C. innocuum; [11]): able to grow | Growth in 50% spent media (C. innocuum; [12]): unable to grow | Transformation of Dox by bacterial communities ([3]; communities containing E. coli and lacking K. pneumoniae (C4)): at a slower rate | Transformation of doxorubicin by bacterial communities ([3]; communities containing E. coli or K. pneumoniae): rapid transformation | Transformation of Dox by bacterial communities ([3]; communities without either K. pneumoniae or E. coli (C5)): not able to enzymatically transform Dox | C. innocuum growth in mixed communities ([3]; generation 2, medium and high concentrations of doxorubicin): not detected in all cultures | Growth after 25 hours (Clostridium innocuum; Dox 100 μM): did not observe any growth | Dox concentration at which delayed growth was observed (Clostridium innocuum; monoculture): ≤ 10 µM | Sensitivity to Dox (Clostridium innocuum; monoculture): highly sensitive | Growth in 50% spent media (Lactobacillus [4]; [11]): able to grow | Growth in 50% spent media (Lactobacillus [4]; [12]): unable to grow | Resistance to Dox (Escherichia coli [5]): resistant | Resistance to Dox (Enterococcus faecalis [6]): resistant to Dox | Resistance to Dox (Klebsiella pneumoniae [7]): resistant | Change of Dox concentration in culture (Escherichia coli [8]; E. coli culture, absorption at λ480): reduced Dox concentration in culture | Dox concentration in the 50% spent media (Escherichia coli [8]; E. coli grown with initial 250 μM Dox): 4.1 ± 2.5 µM | Change of Dox concentration in culture (Klebsiella pneumoniae [9]; K. pneumoniae culture, absorption at λ480): reduced Dox concentration in culture | Dox concentration in the 50% spent media (Klebsiella pneumoniae [9]; K. pneumoniae grown with initial 250 μM Dox): 4.4±0.9 | Change of Dox concentration in culture (Enterococcus faecalis [10]; E. faecalis culture, absorption at λ480): did not reduce the Dox concentration in culture | Dox concentration in the 50% spent media (Enterococcus faecalis [10]; E. faecalis grown with initial 100 μM Dox): 48.4±0.8

gentamicin
Effect on K. pneumoniae growth (K. pneumoniae): stalled K. pneumoniae growth
